Measured values as given in patent US20020162794A1, “Anaerobic digestion” (priority 2001, published 2002).

Key:
[1] = tested on: anaerobic mixed culture (domestic sewage); assay: Anaerobic digestion of domestic sewage, overall effect of formate salt concentration; conditions: for effect on anaerobic digestion over the tested concentration range: 10 mg/L to 100,000 mg/L based on the organic matter available for digestion
Description: The various formate salts include, but are not limited to sodium formate (NaHCOO), potassium formate (KHCOO), ammonium formate (NH4COO), calcium formate (Ca(HCOO)2), and others either singly or in combination. These formate salts have been tested for concentrations ranging from 10 mg/L (˜10 ppm) to as high as […] (100,000 mg/L) based on the organic matter available for digestion.
Two tests were run in which sodium formate in concentrations ranging from a few parts per million (ppm) up to ten percent (10%) on a mass basis were added to samples taken from a publicly owned anaerobic digester. The samples were first cultured in laboratory sized batch reactors. The twelve batch reactors were then sampled, and studied for periods of up to fifty-five days. The process variables that were monitored included COD (Chemical Oxygen Demand), TS (Total Solids), TVS (Total Volatile Solids) and the pH of the culture. Time and the initial sodium formate concentration level were the independent variables. Finally measurements were also made of the bacterial counts at the beginning and at the end of the fifty five day period.
Municipal sludge from the city of Lubbock, Wastewater Treatment Plant was digested in 12 batch digesters. Using twelve batch reactors allowed the collection of control reactors data (i.e., no formate in the reactors) in triplicate, titration studies of increasing formate concentration, and duplicates/triplicates of varying formate concentration. Experiments were conducted in the laboratories of Texas Tech University.

[2] = tested on: microorganisms in domestic sewage; conditions: sodium chloride spike; cited from earlier work

Compound: N.O=CO [ammonium formate]
- effect on anaerobic digestion over the tested concentration range [1]: initiate the inhibition of digestion at concentrations above a few thousand mg/L

Compound: O=C[O-].[K+] [potassium formate]
- effect on anaerobic digestion over the tested concentration range [1]: beneficial at all concentration levels
- concentration range of greatest effects ([1]; 10 mg/L to 100,000 mg/L tested): greatest effects being observed over the 100 ppm to the 2,000-mg/L range

Compound: [Cl-].[Na+] [sodium chloride]
- toxicity of sodium levels [2]: toxic to all microorganisms in domestic sewage at levels above three to four percent
